# Data reported in patent US20240327415A1, “Multicomponent Complexes, Including Salts, Crystalline Forms, and Hydrates and Solvates of ENT1 Inhibitors” (iTeos Belgium SA, priority 2023, published 2024).
# Where two headings read alike, the source gives them in different places.
# Tests used:
# Type in all cases: physicochemical
# [1] = XRPD characterization (summary Table 59); conditions: crystallinity
# [2] = seven-day solid stability studies (ambient; 40° C./75% RH; 80° C.), XRPD and HPLC
# Description: In the experiment, one set of vials was exposed to ambient light, temperature and humidity conditions. Another was exposed openly to 40° C. and 75% RH conditions and a third was sealed and exposed to 80° C. conditions. After 7 days, XRPD and HPLC measurements were collected.
# Example 12-Stability Studies of Amorphous Compound 1 (free base) and Crystalline Form 1 Compound 1 (free base): Seven-day stability studies were carried out comparing amorphous Compound 1 (free base) and crystalline Form 1 Compound 1 (free base) at 40° C./75% RH, under ambient conditions and at 80° C. After storage at 40° C./75% RH and 80° C., the amorphous material formed glassy solids which were pale yellow (40° C./75% RH) or orange (80° C.). It is likely that the material melted and re-solidified at 80° C. and deliquesced at 40° C./75% RH. […] (decrease in purity of ca. 11% area).
# Example 15-Stabilities Studies-Crystalline Form 3 Compound 1 di(hydrogen sulfate) and Crystalline Form 4 Compound 1 mono(hydrogen sulfate): Seven-day stability studies were carried out on the prepared crystalline Form 3 Compound 1 di(hydrogen sulfate) and crystalline Form 4 Compound 1 mono(hydrogen sulfate) using the following conditions: (1) Ambient light, temperature and humidity conditions (open vial); (2) 40° C./75% RH (open vial); and (3) 80° C. (closed vial). After 7 days of storage under the specified conditions, XRPD and HPLC analyses were carried out on the residual solid materials, and the results are summarized in Table 51.
# Example 18-Seven Day Stability Study on Crystalline Form 2 Compound 1 di(hydrogen sulfate) trihydrate: A 7-day stability study was conducted on crystalline Form 2 Compound 1 di(hydrogen sulfate) trihydrate using the following conditions: (1) ambient light, temperature, and humidity conditions (open vial); (2) 40° C., 75% RH (open vial); and (3) 80° C. (closed vial). After 7 days of storage under the specified, XRPD and HPLC analyses were carried out on the residual solid materials.
# [3] = TG/DSC and DSC thermal analysis; conditions: for TGA/DSC thermal event, onset: value before the brackets; for TGA/DSC thermal event, peak: value in brackets
# Description: (§1) In the examples below, to measure TGA/DSC, 2-10 mg of material was added into a pre-tared open aluminum pan and loaded into a TA Instruments Discovery SDT 650 Auto—Simultaneous DSC and held at room temperature. The sample was then heated at a rate of 10° C./min from 30° C. to 400° C. during which time the change in sample weight was recorded along with the heat flow response (DSC). Nitrogen was used as the sample purge gas, at a flow rate of 200 cm^3/min.
# (§2) METHOD A: In Example 3, 1-5 mg of material was weighed into an aluminum DSC pan and sealed non-hermetically with a pierced aluminum lid. The sample pan was then loaded into a TA DSC2500 and held at 20° C. Once a stable heat-flow response was obtained, the sample and reference were heated to an upper temperature of 200° C. at a scan rate of 10° C./min and the resulting heat flow response monitored. The sample was held at the upper temperature for 3 minutes, before it was cooled at 10° C./min to 20° C., reheated to the upper temperature at 10° C./min, and then cooled again to 20° C. at the same rate. Nitrogen was used as the purge gas, at a flow rate of 50 cm^3/min.
# as §2, with “B:” for “A:”, “Examples 2A, 14, and 17,” for “Example 3,”, “−80° C. and then” for “20° C.,”, “C./min.” for “C./min, and then cooled again to 20° C. at the same rate.”
# METHOD C: In Example 5, 1-5 mg of a sample were weighed into an aluminum DSC pan and sealed non-hermetically with an aluminum lid. The sample pan was then loaded into a TA Instruments Discovery DSC 2500 differential scanning calorimeter equipped with a RC90 cooler. The sample and reference were heated to 190° C. at a scan rate of 10° C./min and the resulting heat flow response monitored. The sample was re-cooled to −80° C. and then reheated again to 190° C. all at 10° C./min. Nitrogen was used as the purge gas, at a flow rate of 50 cm^3/min.
# as §1, with “2-10” for “In the examples below, to measure TGA/DSC, 2-10”, “Auto-Simultaneous” for “Auto—Simultaneous”
# as §2, with “1-5” for “METHOD A: In Example 3, 1-5”, “min,” for “minutes,”
# [4] = 7 days, 40° C./75% RH (open vial)
# [5] = listed as Crystalline Form 4 Compound 1 mono(hydrogen sulfate)
Compound,XRPD [1],7-day Stability studies: Purity compared to input [2],7-day Stability studies: solid form ([2]; all conditions),DSC (onset/peak): onset [3] [°C],DSC (onset/peak): peak [3] [°C],TGA/DSC mass loss [3] [% mass loss],"TGA/DSC thermal event, onset [3] [°C]","TGA/DSC thermal event, peak [3] [°C]","solid form by XRPD after storage ([2]; 7 days, 40° C./75% RH)","solid form by XRPD after storage ([2]; 7 days, 80° C.)","solid form by XRPD after storage ([2]; 7 days, ambient conditions)",other results
CCCN1CCNCCCNC(=O)c2cc(OC)c(OC)c(c2)OCCC[C@@H](OC(=O)c2cc(OC)c(OC)c(OC)c2)CC1,Crystalline,Purity similar,No change,144,158,7.3,130,149,–,–,–,"HPLC [2, 4]: 99.86 % area; XRPD [2, 4]: 2; HPLC ([2]; 7 days, 80° C. (closed vial)): 99.85 % area; XRPD ([2]; 7 days, 80° C. (closed vial)): 2; HPLC ([2]; 7 days, Ambient (open vial)): 99.86 % area; XRPD ([2]; 7 days, Ambient (open vial)): 2; HPLC ([2]; Input sample): 99.92 % area; XRPD ([2]; Input sample): 2"
COc1cc(C(=O)O[C@@H]2CCCOc3cc(cc(OC)c3OC)C(=O)NCCCN3CCCN(CC2)CC3)cc(OC)c1OC.O=S(=O)(O)O,Crystalline,Purity similar,Form 4 retained,113,119,–,–,–,retained,predominantly amorphous,retained,"7-day Stability studies: crystallinity ([2]; at 80° C., printed 'crystallinity significantly reduced'): reduced at 80° C.); TGA/DSC mass loss [3, 5]: 15.5% mass loss; TGA/DSC thermal event, onset [3, 5]: 148 °C; TGA/DSC thermal event, peak [3, 5]: 160 °C"
COc1cc(C(=O)O[C@@H]2CCCOc3cc(cc(OC)c3OC)C(=O)NCCCN3CCCN(CC2)CC3)cc(OC)c1OC.O=S(=O)(O)O.O=S(=O)(O)O [crystalline Form 3 Compound 1 di(hydrogen sulfate)],Partially,Purity similar,–,–,–,3.1,163,177,Conversion to crystalline Form 2 Compound 1 di(hydrogen sulfate) trihydrate,mixture of crystalline Form 3 Compound 1 di(hydrogen sulfate) and crystalline Form 9 Compound 1 di(hydrogen sulfate),conversion to crystalline Form 6 Compound 1 di(hydrogen sulfate),7-day Stability studies: solid form ([2]; at 80° C.): Form 9 at 80 °C; 7-day Stability studies: solid form ([2]; at ambient): Form 6 at ambient;
